{
  "source": "patent US20260137773A1",
  "about": "(priority 2022, published 2026)",
  "key": {"[1]": {"test_system": "4T1 mouse mammary gland carcinoma", "assay_type": "in vivo", "conditions": "data not shown"}, "[2]": {"conditions": "healthy volunteers; cited from earlier work"}, "complement activation": {"test_system": "complement activation", "conditions": "higher than Factor H; cited from earlier work"}},
  "data": [
    {"molecule": "Versikine", "values": [
      {"measurement": "tumor size, Versikine assessed alone", "setting": "[1]", "value": "did not significantly reduced tumor size"}
    ]},
    {"molecule": "CC[C@H](C(=O)N1CCCC[C@H]1C(=O)O[C@H](CCc1ccc(OC)c(OC)c1)c1cccc(OCC(=O)NCCNC(=O)COc2cccc([C@@H](CCc3ccc(OC)c(OC)c3)OC(=O)[C@@H]3CCCCN3C(=O)[C@@H](CC)c3cc(OC)c(OC)c(OC)c3)c2)c1)c1cc(OC)c(OC)c(OC)c1", "note": "[AP1903]", "values": [
      {"measurement": "safety", "setting": "[2]", "value": "proven safe"}
    ]},
    {"molecule": "miniFH (protein, REGION 1..499: note = miniFH POLYPEPTIDE) EDCNELPPRRNTEILTGSWSDQTYPEGTQAIYKCRPGYRSLGNVIMVCRKGEWVALNPLRKCQKRPCGHPGDTPFGTFTLTGGNVFEYGVKAVYTCNEGYQLLGEINYRECDTDGWTNDIPICEVVKCLPVTAPENGKIVSSAMEPDREYHFGQAVRFVCNSGYKIEGDEEMHCSDDGFWSKEKPKCVEISCKSPDVINGSPISQKIIYKENERFQYKCNMGYEYSERGDAVCTESGWRPLPSCEEKSCDNPYIPNGDYSPLRIKHRTGDEITYQCRNGFYPATRGNTAKCTSTGWIPAPRCTSGSGGGGVDTTSCVNPPTVQNAYIVSRQMSKYPSGERVRYQCRSPYEMFGDEEVMCLNGNWTEPPQCKDSTGKCGPPPPIDNGDITSFPLSVYAPASSVEYQCQNLYQLEGNKRITCRNGQWSEPPKCLHPCVISREIMENYNIALRWTAKQKLYSRTGESVEFVCKRGYRLSSRSHTLRTTCWDGKLEYPTCAKR", "values": [
      {"measurement": "ex vivo potency to inhibit complement activation compared with FH", "setting": "complement activation", "value": "~10", "unit": "fold"}
    ]}
  ]
}
